The source of these data is US20130345073A1, “USE OF ALPHA-2-MACROGLOBULIN FOR DETERMINING OSTEONECROSIS DISEASE STATUS AND FOR SCREENING THERAPEUTIC AGENTS FOR PREVENTING OR TREATING OSTEONECROSIS” (priority 2012, published 2013).

In data set [1] the test system is A2M gene expression in human umbilical vein endothelial cells (HUVEC). Briefly: A2M gene expression in treated HUVEC cells (qPCR). In kind it is cell-based. The conditions noted are these: for effect on A2M overexpression induced by dexamethasone: combined with dexamethasone, PD98059 20 μM, withaferin 1 μM (FIG. 4D). In general terms: In qPCR the cycle at which signal appears reflects the starting amount.
Source text: HUVECs were purchased from Lonza (Walkersville, Md., USA) and cultured in endothelial basal medium (EBM-2media (Lonza) supplemented with microvascular additives (excluding hydrocortisone): human endothelial growth factor, 5% fetal bovine serum (FBS), vascular endothelial growth factor, human fibroblast growth factor type B, R3 insulin-like growth factor 1, ascorbic acid, heparin and the appropriate antibiotics gentamicin and amphotericin B (as per the supplier's protocol). HUVECs cells were cultured to near confluence (80%), trypsinized and seeded on 6 wells plates (10^5 cells/well). After 24 h incubation, cells were treated with dexamethasone (0.25 to 1 mM, Sigma-Aldrich, St-Louis, Mo., USA) for different time periods (between 4h to 48h). For experiments relating to the signaling pathways, different inhibitors were used: PD98059 (20 μM, Sigma) a MAPK inhibitor; withaferin (1 μM, Tocris, Bristol, UK), an NFkB PI3K inhibitor, and thrombin (1.5 U/ml; Calbiochem, San Diego, Calif., USA) an NFkB agonist. After incubation cells were harvested and RNA extracted using Trisol® (Invitrogen, Burlington, ON, Canada). RNA were then reverse transcribed using high capacity RNA to cDNA kit (Applied biosystems, Carlsbad, Calif., USA). A2M expression levels were then determined by qPCR using Taqman probes and master mix (Applied Biosystems)
First, a dose response curve of HUVEC cells treated 48h using different concentration of Dex (dexamethasone) (0.1 mM to 1 mM) was generated. […] Then, a time response curve (4h to 24h) of HUVEC cells treated with 1 mM dexamethasone was generated. […] The effect of dexamethasone, PD and whitaferin on A2M expression of HUVEC cells was also determined.

Data set [2] relates to Fisher and WK rats. The data set is described as follows: Micro-computerized tomography scanning of femoral head cross-sections. In kind it is in vivo, rat. How it is done:
At the conclusion of the 180 day experimental period, all prednisone and placebo animals were euthanized via brief isoflurane exposure followed by cardiac puncture. Immediately following euthanasia, both femurs in each animal were dissected, with care taken to preserve the integrity of the femoral cartilage during hip disarticulation. The femurs were then osteotomized at the mid-diaphysis and the proximal portion was immersed initially in 4% paraformaldehyde for 24 hours, washed with sterile phosphate buffered saline (PBS) for the following 48 hours, and then preserved in PBS at −5° Celsius.
Micro computed-tomography (μCT) scanning was performed on each harvested femur using a Skyscan1172 instrument equipped with a 1.3 Mp camera (Skyscan, Kontich, Belgium). […] 2-dimensional serial cross sections were assembled into 3D reconstructions and analyzed using Skyscan™ software (CTAn version 2.0.0.1) supplied with the instrument. […]
In the present example, an analysis of the epiphyseal trabecular bone adjacent to the subchondral plate was performed. […] This shape permitted the largest area of epiphyseal bone to be measured without artefact from the adjacent rodent growth plate or cortical cap. […]
Four widely utilized morphometric indices measuring bone volume and bone connectivity were measured from the binarized 3-dimensional volume of interest. […] Total bone porosity (TBP) was also measured. […]

Data set [3] deals with Fisher and Wistar Kyoto (WK) rats. The data set is described as follows: Alpha-2-Macroglobulin (A2M) level in the blood by rat A2M ELISA. The data set is classed as in vivo. The text has this: Slow-release prednisone pellets (Innovative Research of America, Sarasota Florida, USA) were implanted subcutaneously into 12 Wistar Kyoto rats (all males) and 12 Fisher rats (all males) at the age of 8-12 weeks. Each pellet was implanted underneath the skin on the lateral side of the neck by surgically making an incision and developing a pocket about 2 cm beyond the incision site. The pellet was placed in the pocket and the incision was sutured. Based on the manufacturer's instructions the pellet releases a constant dose of the drug subcutaneously. To maintain a constant dosage during the 6 month period of the experiment, second and third pellet implantations were performed using the same procedure at 2 and 3 months respectively. The average dose release from the pellet was equivalent to 1.5 mg/kg/day for the period of 6 months. The dose of corticosteroids and the duration of treatment were chosen based on clinical experience. For the control group, 6 age-matched Wistar Kyoto (all males) and 6 age-matched Fisher (all males) rats received placebo pellets (Innovative Research of America) introduced through the same surgical technique. All rats were weighed upon their entry into the animal facility and were then weighed on a weekly basis until the end of the experimental period. Serum glucose measurements were performed at 2 week intervals via saphenous venipuncture using a portable glucometer (ContourTM glucometer, Bayer). Furthermore, 1 ml of whole blood was collected from each animal once a month via sublingual venipuncture under general anesthesia following a previously described technique. Following venipuncture, the blood was transferred to standard EDTA tubes, centrifuged for 8 minutes at 3600 rpm and the serum was separated and initially stored at -20° Celsius. Monthly serum […] concentrations were determined using a Rat Alpha 2-Marcoglobulin Enzyme Linked Immunoassay (ELISA) (Kamiya Biomedical Company, Seattle, USA) according to the manufacturer's instructions. This measurement was performed by an author blinded to treatment allocation. Fisher and Wistar Kyoto (WK) rats received steroid/placebo treatment for 5 and 6 months, respectively and blood was collected monthly. The Alpha-2-Macroglobulin […]) level in the blood was detected using rat […] ELISA kit (Immunology Consultants Laboratory, USA). Rats were divided into groups based on the treatment as well as the results from histopathology and TUNEL evaluation. AVN(+) was judged to be either TUNEL (+) or (++), or AVN(-) by histopathology study on at least one hip. […] However, as shown on FIG. 3C, the […] level in the blood of steroid-treated Fisher rats (only those considered AVN(+)) increased at 2 months after steroid treatment, and they were consider AVN(+). […]

For data set [4], the system named is Wistar Kyoto rats. The conditions noted are these: male, rat, in vivo, 6 months. How it is done: (§1) Experimental animals and their maintenance. Forty Wistar Kyoto (WKY) rats (ages 4 weeks old) were purchased from Charles River Laboratories (Pointe-Claire, QC, Canada). The rats were tagged and housed in plastic cages (2 to 4 animals per cage) under standard laboratory conditions with a 12-hour dark/12-hour light cycle, a constant temperature of 20° C., and humidity of 48%. Food and water were provided ad libitum with a standard rodent diet. The weight of the rats were followed before and after the implant of a prednisone pellet for the first 3 consecutive weeks and then every month until the end of the experiment. All experiments were conducted under an animal protocol approved by the McGill Animal Care Department.
Slow-release prednisone pellets (Innovative Research of America, Sarasota Florida, USA) were implanted subcutaneously into 24 Wistar Kyoto rats (12 males and 12 females rats) at the age of 5 weeks. […]
The rats were sacrificed with an overdose of ketamine/xylazine at the age of 30 weeks. […] Tissue samples were sectioned parasagitally with a rotary microtome at 4 to 5 microns thickness, stained with hematoxylin and eosin and evaluated by light microscopy.
The tissue samples were analyzed in a blinded fashion by two experienced bone pathologists. […]

Data set [5] has as its system Fisher and Wistar Kyoto (WK) rats. The conditions noted are these: rat, in vivo. How it is done:
as §1, with “Eighteen Wistar” for “Experimental animals and their maintenance. Forty Wistar”, “(ages 12-16 weeks old) and eighteen Fisher (ages 12-16” for “(ages 4”
Slow-release prednisone pellets (Innovative Research of America, Sarasota Florida, USA) were implanted subcutaneously into 12 Wistar Kyoto rats (all males) and 12 Fisher rats (all males) at the age of 8-12 weeks. Each pellet was implanted underneath the skin on the lateral side of the neck by surgically making an incision and developing a pocket about 2 cm beyond the incision site. The pellet was placed in the pocket and the incision was sutured. Based on the manufacturer's instructions the pellet releases a constant dose of the drug subcutaneously. To maintain a constant dosage during the 6 month period of the experiment, second and third pellet implantations were performed using the same procedure at 2 and 3 months respectively. The average dose release from the pellet was equivalent to 1.5 mg/kg/day for the period of 6 months. The dose of corticosteroids and the duration of treatment were chosen based on clinical experience. For the control group, 6 age-matched Wistar Kyoto (all males) and 6 age-matched Fisher (all males) rats received placebo pellets (Innovative Research of America) introduced through the same surgical technique.
The rats were sacrificed with an overdose of ketamine/xylazine at the age of 32-36 weeks. Tissue samples were obtained from the proximal femur containing the femoral head. Some samples were put in RNALater™ (QIAGEN Inc., Mississauga, ON, Canada) for RNA extraction and some samples were fixed for histological examination. Bone samples were fixed in 10% neutral buffered formalin, then decalcified in 4% ethylenediamine tetraacetic acid (pH 7.2) (Sigma-Aldrich, St. Louis, Mo., USA). The specimens were processed routinely and embedded in paraffin. Tissue samples were sectioned parasagitally with a rotary microtome at 4 to 5 microns thickness, stained with hematoxylin and eosin and evaluated by light microscopy.
The tissue samples were analyzed in a blinded fashion by two experienced bone pathologists. […] While the development of ON proceeds through various clinically identifiable stages, it was preferable for this study to detect early as well as the late stages of the condition. With this objective in mind, the criteria of Arlet [Arlet, 1993] was adopted namely degeneration, necrosis, and disappearance of marrow cells as well as the nuclear disappearance and hypochromasia of trabecular osteocytes as early signs of ON [Arlet, 1993]. Early signs of ON was also considered when apoptosis occurred in the osteocytes and osteoblasts. Positivity for apoptosis was defined by the authors as more than three osteocytes and/or osteoblasts recognized in a high magnification field based on previous studies [Weinstein et al, 2000; Shibahara et al., 2000].
Terminal dexoynucleotidyl transferase (TdT) mediated deoxyuridine triphosphate biotin nick end labeling (TUNEL) was used to detect fragmented DNA known to be associated with apoptotic cell death. TUNEL assay on paraffin-embedded tissue sections was performed with the DeadEnd™ Colorimetric TUNEL System (Promega, Madison, Wis., USA) as recommended by the manufacturer. […]

The test system is the same in data set [6]. The conditions noted are these: male, rat, in vivo, 5 months.

Where two headings read alike, the source gives them in different places.

Take `COc1cccc(-c2cc(=O)c3ccccc3o2)c1N` [PD, PD98059]: the “effect on A2M overexpression induced by dexamethasone” value in data set [1] (HUVEC) was “repression of A2M gene expression”.

Turning to `C[C@@H]1C[C@H]2[C@@H]3CCC4=CC(=O)C=C[C@]4(C)[C@@]3(F)[C@@H](O)C[C@]2(C)[C@@]1(O)C(=O)CO` [dexamethasone], in data set [1] (HUVEC treated 48h, dose response 0.1 mM to 1 mM (FIG. 4A)), the “concentration of maximum effect on A2M expression” value was 0.5 mM. Besides, the “time of maximum effect on A2M expression” value in data set [1] (HUVEC, 1 mM dexamethasone, time response 4h to 24h (FIG. 4B)) was 24 h.

`CC1=C(CO)C(=O)O[C@@H]([C@@H](C)[C@H]2CC[C@H]3[C@@H]4C[C@H]5O[C@]56[C@@H](O)C=CC(=O)[C@]6(C)[C@H]4CC[C@]23C)C1` [whitaferin, withaferin]: the “effect on A2M overexpression induced by dexamethasone” value in data set [1] (HUVEC) is “repression of A2M gene expression”.

For `C[C@]12C=CC(=O)C=C1CC[C@@H]1[C@@H]2C(=O)C[C@@]2(C)[C@H]1CC[C@]2(O)C(=O)CO` [Prednisone, prednisone], in data set [2] (Fisher rats following steroid administration (FIG. 5A)), the “micro-CT findings of femoral head” value is reported as “no articular erosion”. Also, in data set [2] (steroid-treated WK rats (FIG. 5B)), the “rats with subchondral porosity, small and erratic trabeculae and isotropic trabecular arrangement” value is recorded as 9 out of 12. Also, the “A2M level in the blood” value in data set [3] (Fisher rats, 5 months after the beginning of the steroid treatment (FIG. 3E)) is “declined”. Besides, in data set [3] (steroid-treated Fisher rats AVN(+), at 2 months after steroid treatment (FIG. 3C)), the “A2M level in the blood” value is listed as “increased”. Also, in data set [3] (steroid-treated WK rats, all AVN(+) (FIG. 3D)), the “time of peak A2M level in the blood after the beginning of the treatment” value was 3 month. Also, in data set [3] (steroid-treated WK rats, at least 6 months after the beginning of the treatment (FIG. 3E)), the “A2M level in the blood” value is on record as “remained higher than placebo-treated group”. Further, in data set [4], the “incidence of the disease (ON)” value was “up to 75%”. Further, in data set [5] (male, Wistar Kyoto, 6 months), the “Total TUNEL(++) hips” value stood at 9, the “Total TUNEL(−) hips” value was 1, the “number of hips AVN(+) TUNEL(−)” value was found to be 1 and the “number of hips AVN(−) TUNEL(+)” value is recorded as 1. In addition, the “number of hips AVN(−) TUNEL(++)” value in data set [5] (male, Wistar Kyoto, 6 months) turned out to be 2. In addition, the “apoptosis (TUNEL positive cells) in bilateral femora” value in data set [5] is reported as “more profound”. Also, in data set [6], the “Total TUNEL(++) hips” value is on record as 7, the “Total TUNEL(−) hips” value turned out to be 2 and the “number of hips AVN(+) TUNEL(−)” value is 1.
